Experimental data as given in BigSolDB 2.1.

O=C(Oc1ccccc1C(=O)O)c1ccccc1O
Conditions	solubility (mole fraction)
in 1,4-dioxane, 324.45 K	0.263
in 1,4-dioxane, 326.55 K	0.268
in 1,4-dioxane, 330.35 K	0.278
in 1,4-dioxane, 332.55 K	0.284
in 1,4-dioxane, 334.95 K	0.291
in 1,4-dioxane, 337.35 K	0.298
in cyclopentyl methyl ether, 319.75 K	0.148
in cyclopentyl methyl ether, 323.25 K	0.156
in cyclopentyl methyl ether, 323.95 K	0.158
in cyclopentyl methyl ether, 325.65 K	0.16
in cyclopentyl methyl ether, 327.75 K	0.166
in cyclopentyl methyl ether, 329.95 K	0.17
in cyclopentyl methyl ether, 333.95 K	0.176
in toluene, 327.75 K	0.016
in toluene, 329.25 K	0.017
in toluene, 333.45 K	0.019
in toluene, 335.25 K	0.021
in toluene, 335.95 K	0.022

O=C(O)c1ccc([N+](=O)[O-])cc1
in 1,4-dioxane
Conditions	solubility (mole fraction)
296.95 K	0.036
303.25 K	0.048
306.25 K	0.053
310.85 K	0.062
314.65 K	0.07
319.35 K	0.08

NC(=O)N1c2ccccc2C=Cc2ccccc21
Conditions	solubility (mole fraction)
in 1,4-dioxane, 310.35 K	0.022
in 1,4-dioxane, 319.95 K	0.032
in 1,4-dioxane, 323.55 K	0.036
in 1,4-dioxane, 327.95 K	0.043
in 1,4-dioxane, 329.75 K	0.047
in 1,4-dioxane, 332.45 K	0.052
in 1,4-dioxane, 332.95 K	0.054
in cyclopentyl methyl ether, 308.15 K	0.002
in cyclopentyl methyl ether, 315.15 K	0.002
in cyclopentyl methyl ether, 323.75 K	0.003
in cyclopentyl methyl ether, 331.45 K	0.004
in cyclopentyl methyl ether, 332.45 K	0.004
in toluene, 301.85 K	0.001
in toluene, 313.95 K	0.002
in toluene, 319.65 K	0.003
in toluene, 325.35 K	0.004
in toluene, 328.55 K	0.004
in toluene, 332.15 K	0.005
in toluene, 335.35 K	0.006

Nc1ccccc1C(=O)O
Conditions	solubility (mole fraction)
in 1,4-dioxane, 295.65 K	0.251
in 1,4-dioxane, 304.55 K	0.275
in 1,4-dioxane, 308.35 K	0.287
in 1,4-dioxane, 320.85 K	0.334
in 1,4-dioxane, 324.85 K	0.338
in cyclopentyl methyl ether, 297.85 K	0.137
in cyclopentyl methyl ether, 308.45 K	0.155
in cyclopentyl methyl ether, 315.55 K	0.171
in cyclopentyl methyl ether, 325.25 K	0.194
in cyclopentyl methyl ether, 334.25 K	0.223
in toluene, 295.55 K	0.007
in toluene, 306.95 K	0.012
in toluene, 308.85 K	0.013
in toluene, 312.65 K	0.015
in toluene, 316.75 K	0.018
in toluene, 322.25 K	0.024
in toluene, 325.95 K	0.026
in toluene, 326.05 K	0.026

NC(=O)c1ccncc1
in 1,4-dioxane
Conditions	solubility (mole fraction)
298.55 K	0.014
301.45 K	0.015
303.15 K	0.016
305.05 K	0.017
306.45 K	0.018
308.25 K	0.019
309.15 K	0.02
309.35 K	0.02
312.15 K	0.023
314.05 K	0.024
315.35 K	0.026
319.45 K	0.028
325.55 K	0.036

c1ccc2nc3ccccc3nc2c1
Conditions	solubility (mole fraction)
in 1,4-dioxane, 302.55 K	0.031
in 1,4-dioxane, 305.55 K	0.033
in 1,4-dioxane, 306.05 K	0.034
in 1,4-dioxane, 308.85 K	0.038
in 1,4-dioxane, 312.45 K	0.04
in 1,4-dioxane, 313.55 K	0.043
in 1,4-dioxane, 318.75 K	0.049
in cyclopentyl methyl ether, 301.15 K	0.022
in cyclopentyl methyl ether, 305.75 K	0.026
in cyclopentyl methyl ether, 310.05 K	0.029
in cyclopentyl methyl ether, 314.05 K	0.033
in cyclopentyl methyl ether, 318.25 K	0.039
in cyclopentyl methyl ether, 326.85 K	0.047
in toluene, 282.95 K	0.015
in toluene, 289.85 K	0.02
in toluene, 294.25 K	0.022
in toluene, 297.95 K	0.025
in toluene, 301.35 K	0.027
in toluene, 312.55 K	0.039
in toluene, 318.25 K	0.046
in toluene, 322.35 K	0.053
in toluene, 328.75 K	0.062

Nc1ccc(C(=O)O)cc1
in 1,4-dioxane
Conditions	solubility (mole fraction)
298.25 K	0.068
301.25 K	0.073
304.65 K	0.08
311.55 K	0.094
317.75 K	0.108
320.65 K	0.116
324.85 K	0.127
326.35 K	0.131

O=C(O)c1cccc(O)c1
in 1,4-dioxane
Conditions	solubility (mole fraction)
305.35 K	0.188
308.85 K	0.194
310.85 K	0.197
312.95 K	0.204
313.05 K	0.203
316.75 K	0.211
318.75 K	0.214
321.45 K	0.219
325.35 K	0.227

O=C(O)c1ccccc1O
Conditions	solubility (mole fraction)
in 1,4-dioxane, 316.85 K	0.323
in 1,4-dioxane, 321.55 K	0.337
in 1,4-dioxane, 325.55 K	0.35
in 1,4-dioxane, 330.85 K	0.365
in cyclopentyl methyl ether, 316.75 K	0.252
in cyclopentyl methyl ether, 322.85 K	0.264
in cyclopentyl methyl ether, 330.55 K	0.28
in cyclopentyl methyl ether, 333.05 K	0.289
in cyclopentyl methyl ether, 337.25 K	0.299
in toluene, 305.65 K	0.007
in toluene, 314.15 K	0.011
in toluene, 323.45 K	0.017
in toluene, 326.85 K	0.019
in toluene, 329.05 K	0.021
in toluene, 332.25 K	0.025
in toluene, 333.35 K	0.027

CC(=O)Nc1ccc(O)cc1
in 1,4-dioxane
Conditions	solubility (mole fraction)
334.55 K	0.037
335.35 K	0.039
336.65 K	0.042
336.95 K	0.042
337.25 K	0.043
337.85 K	0.045

NC(=O)c1cccnc1
in 1,4-dioxane
Conditions	solubility (mole fraction)
307.25 K	0.025
309.95 K	0.027
311.55 K	0.029
313.35 K	0.031
315.45 K	0.033

O=C(O)c1ccc(O)cc1
in 1,4-dioxane
Conditions	solubility (mole fraction)
299.65 K	0.08
304.15 K	0.088
311.15 K	0.102
315.75 K	0.111
319.95 K	0.119
324.55 K	0.131

CC(=O)Oc1ccccc1C(=O)O
Conditions	solubility (mole fraction)
in 1,4-dioxane, 309.35 K	0.164
in 1,4-dioxane, 312.05 K	0.171
in 1,4-dioxane, 315.55 K	0.183
in 1,4-dioxane, 317.65 K	0.191
in 1,4-dioxane, 325.75 K	0.218
in 1,4-dioxane, 330.05 K	0.236
in 1,4-dioxane, 331.45 K	0.246
in 1,4-dioxane, 332.55 K	0.258
in cyclopentyl methyl ether, 313.05 K	0.055
in cyclopentyl methyl ether, 314.25 K	0.057
in cyclopentyl methyl ether, 316.35 K	0.059
in cyclopentyl methyl ether, 319.05 K	0.064
in cyclopentyl methyl ether, 320.55 K	0.068
in cyclopentyl methyl ether, 322.85 K	0.074
in cyclopentyl methyl ether, 325.75 K	0.079
in toluene, 321.25 K	0.008
in toluene, 326.65 K	0.01
in toluene, 327.15 K	0.011
in toluene, 327.85 K	0.011
in toluene, 330.15 K	0.014
